The values that follow come from the supplement of paper PMC5412046.

Experiment [1] concerns SB.mhdgc-1. The experiment can be described thus: AC50 for growth inhibition (viability) (log10 M); higher = less potent. Particulars: SB.mhdgc-1 (hereditary c.1380delA CDH1 gastric cancer). The gist of the method:
(§1)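 Hereditary or sporadic patient-derived gastric cancer cells (500 cells in 5 μL medium per 1536 well) received 23 nL compound in DMSO by pintool. Dosing was 11 threefold dilutions starting at a final 46 μM. After 48 h, CellTiter-Glo was added for 30 min at room temperature and luminescence read on a ViewLux. Log half-maximal activity concentration came from a four-parameter fit of DMSO-normalised viability, keeping only high-quality curve classes.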

In experiment [2] the test system is SB.msgc-1. Described as above. Particulars: SB.msgc-1 (sporadic gastric cancer). The gist of the method:
as §1

Counter-ions that a name gives are not always drawn.

As to `O=[N+]([O-])c1cnc(Sc2nnc(O)n2-c2ccc3c(c2)OCCO3)s1` [BI-78D3], the “AC50 for growth inhibition (log10 M)” value in experiment [1] was -5.43; in experiment [2], -4.83.
Taken in the same sequence, the figures for `O=C1Nc2cc(Br)ccc2/C1=C1/Nc2ccccc2/C1=N\O` [BIO] were -4.78 and -4.98.
Consider `Nc1cc(C(F)(F)F)c(-c2cc(N3CCOCC3)nc(N3CCOCC3)n2)cn1` [BKM-120], for which the results for the “AC50 for growth inhibition (log10 M)” value in experiment [1] and in experiment [2] were -6.78 and -6.18, respectively.
For `O=C(Nc1ncc(-c2cc(C(F)F)nn2-c2c(Cl)cccc2Cl)s1)C1CC1` [BMS-3] the same measures were -6.13 and -6.18.
For `CN(CC(=O)N(Cc1ccc(C2CCCCC2)cc1)c1ccc(C(=O)O)c(O)c1)[S+](=O)([O-])c1c(F)c(F)c(F)c(F)c1F` [BP-1-102] the same measures were -4.58 and -4.73.
For `CC(C)c1cnn2c(NCc3ccccc3)cc(NCCCCCCN)nc12` [BS-181], the “AC50 for growth inhibition (log10 M)” value in experiment [1] was -4.83; in experiment [2] it was -4.73.
For `CC(C)c1cnn2c(NCc3ccccc3)cc(N[C@@H](CO)[C@H](O)CO)nc12` [BS-194] the same measures were -6.73 and -6.58.
For `C=CCO/N=C(/C[C@H]1O[C@@H]2O[C@]3(C)CC[C@H]4[C@H](C)CC[C@@H]([C@H]1C)[C@@]24OO3)[C@H]1O[C@@H]2O[C@]3(C)CC[C@H]4[C@H](C)CC[C@@H]([C@H]1C)[C@@]24OO3` [BTM-2C-dimer allyl oxime] the same measures were -6.88 and -6.58.
Take `C[C@H]1[C@@H](C(=O)C[C@H]2O[C@@H]3O[C@]4(C)CC[C@H]5[C@H](C)CC[C@@H]([C@H]2C)[C@@]35OO4)O[C@@H]2O[C@]3(C)CC[C@H]4[C@H](C)CC[C@@H]1[C@@]24OO3` [BTM-2C-dimer ketone]: the “AC50 for growth inhibition (log10 M)” value in experiment [1] and in experiment [2] was -6.38 each time.
On to `O=C(NCCCNc1nc(Nc2cccc(NC(=O)N3CCCC3)c2)ncc1I)c1cccs1` [BX-795], for which the figures for the “AC50 for growth inhibition (log10 M)” value in experiment [1] and in experiment [2] were -4.83 and -4.88, respectively.
For the molecule `O=C(Nc1cccc(Nc2ncc(Br)c(NCCc3cnc[nH]3)n2)c1)N1CCCC1` [BX-912], the “AC50 for growth inhibition (log10 M)” value in experiment [1] was -4.98; in experiment [2] it was -4.78.
For `CNC1CCCN(c2c(F)cc3c(=O)c(C(=O)O)cn(C4CC4)c3c2OC)C1` (stereo unspecified) [Balofloxacin], the “AC50 for growth inhibition (log10 M)” value was -5.63 in experiment [1] and -4.83 in experiment [2].
Regarding `C[N+](C)([O-])CCNc1ccc(NCC[N+](C)(C)[O-])c2c1C(=O)c1c(O)ccc(O)c1C2=O` [Banoxantrone], the “AC50 for growth inhibition (log10 M)” value was -4.78 in experiment [1] and -4.88 in experiment [2].
For `O=C(OC)[C@]12CC[C@@]3(C)[C@]4(C)CC[C@H]5[C@@](C)(C)C(=O)C(=C[C@]5(C)C4=CC(=O)[C@@H]3[C@@H]2C[C@](C)(C)CC1)C#N` [Bardoxolone methyl] the same measures were -6.28 and -6.33.
Taken in the same sequence, the figures for `CC[S+](=O)([O-])N1CC(CC#N)(n2cc(-c3ncnc4[nH]ccc34)cn2)C1` [Baricitinib] were -4.88 and -4.63.
Taken in the same sequence, the figures for `CNC(=O)[C@H](Cc1ccccc1)NC(=O)[C@H](CC(C)C)[C@H](CSc1cccs1)C(=O)NO` [Batimastat] were -4.68 and -4.93.
Turning to `O=C(/C=C/c1cccc([S+](=O)([O-])Nc2ccccc2)c1)NO` [Belinostat], the “AC50 for growth inhibition (log10 M)” value was -5.02 in experiment [1] and -5.47 in experiment [2].
For `N/C(=N\C(=O)c1nc(Cl)c(N)nc1N)NCc1ccccc1` [Benzamil] the same measures were -5.73 and -5.53.
Taken in the same sequence, the figures for `CCOC(=O)[C@H](CCc1ccccc1)N[C@H]1CCc2ccccc2N(CC(=O)O)C1=O` [Benzapril] were -5.03 and -4.68.
Regarding `COc1ccc2cc3[n+](cc2c1OC)CCc1cc2c(cc1-3)OCO2` [Berberine], the figures for the “AC50 for growth inhibition (log10 M)” value in experiment [1] and in experiment [2] were -4.98 and -5.18, respectively.
With `CC(O)(C[S+](=O)([O-])c1ccc(F)cc1)C(=O)Nc1ccc(C#N)c(C(F)(F)F)c1` (stereo unspecified) [Bicalutamide], the results for the “AC50 for growth inhibition (log10 M)” value in experiment [1] and in experiment [2] were -6.43 and -5.98, respectively.
For `N=C1S/C(=C\c2ccc(-c3ccc4c(c3)C(=O)NC4=O)o2)C(=O)N1c1ccc(Br)cc1` [Bioymifi], the “AC50 for growth inhibition (log10 M)” value in experiment [1] was -5.28; in experiment [2] it was -5.43.
Taken in the same sequence, the figures for `CC[C@H](NC(=O)[C@H](C)NC)C(=O)N1C[C@@H](O)C[C@H]1Cc1c(-c2[nH]c3cc(F)ccc3c2C[C@@H]2C[C@H](O)CN2C(=O)[C@H](CC)NC(=O)[C@H](C)NC)[nH]c2cc(F)ccc12` [Birinapant] were -6.23 and -5.53.
As to `Cc1c(N)nc([C@H](CC(N)=O)NC[C@@H](N)C(N)=O)nc1C(=O)N[C@H](C(=O)N[C@@H](C)[C@H](O)[C@@H](C)C(=O)N[C@@H](C(=O)NCCc1nc(-c2nc(C(=O)NCCC[S+](C)C)cs2)cs1)[C@@H](C)O)C(O[C@H]1O[C@H](CO)[C@H](O)[C@@H](O)[C@H]1O[C@H]1O[C@H](CO)[C@@H](O)[C@H](OC(N)=O)[C@@H]1O)c1c[nH]cn1` (stereo partly specified) [Bleomycin sulfate], the “AC50 for growth inhibition (log10 M)” value in experiment [1] is -5.88; in experiment [2] it was -5.43.
Take `CC(C)C[C@H](NC(=O)[C@H](Cc1ccccc1)NC(=O)c1cnccn1)B(O)O` [Bortezomib]: the “AC50 for growth inhibition (log10 M)” value in experiment [1] is -7.78; in experiment [2], -7.98.
For `Cc1cc2c(F)c(Oc3ncnn4cc(OC[C@@H](C)O)c(C)c34)ccc2[nH]1` [Brivanib] the same measures were -4.98 and -4.73.
Taken in the same sequence, the figures for `CCCCOc1ccc(CC(=O)NO)cc1` [Bufexamac] were -5.43 and -4.88.
For `COc1ccc([S+](=O)([O-])Nc2cc(-c3c(O)ccc4ccccc34)c(O)c3ccccc23)cc1` [C-188-9] the same measures were -4.73 and -4.73.
On to `CCCNC(=O)[C@H]1O[C@@H]1C(=O)N[C@H](C(=O)N1CCC[C@H]1C(=O)OC)C(C)CC` (stereo partly specified) [CA-074 Me], for which the results for the “AC50 for growth inhibition (log10 M)” value in experiment [1] and in experiment [2] were -4.78 and -4.73, respectively.
Regarding `O=C(NCc1ccccc1)[C@H](Cc1ccccc1)NC(=O)[C@H]1O[C@@H]1C(=O)NCCc1ccc(O)cc1` [CAA0225], the “AC50 for growth inhibition (log10 M)” value in experiment [1] is -6.48; in experiment [2], -6.08.
For the molecule `CC[C@H](NC1=C2N=C[NH]C2=NC=N1)C/3=N/C4=C(C(=CC=C4)F)C(=O)N3C5=CC=CC=C5` [CAL-101], the “AC50 for growth inhibition (log10 M)” value in experiment [1] is -5.18; in experiment [2] it was -5.43.
Taken in the same sequence, the figures for `OCCNC1CCCc2c1[nH]c1ccc(-c3ccccc3)cc21` (stereo unspecified) [CASIN] were -4.73 and -4.63.
With `c1cc(OCCN2CCCCC2)cc(-c2n[nH]c3ccc(-c4nc[nH]n4)cc23)c1` [CC-401], the “AC50 for growth inhibition (log10 M)” value in experiment [1] and in experiment [2] was -4.78 each time.
As for `Cc1c(CCOc2ccc(C(=O)O)cc2)c2cc(Cl)ccc2n1C(c1ccccc1)c1ccccc1` [CDIBA], the “AC50 for growth inhibition (log10 M)” value in experiment [1] is -4.73; in experiment [2], -4.98.
For `CN1/C=C(\N=C(NC2=CC=C(C=C2)C(=O)N3CCOCC3)/C1=O)/C4=C(C)C(=CC=C4)NC(=O)C5=CC=C(C=C5)C(C)(C)C` [CGI-1746], the “AC50 for growth inhibition (log10 M)” value in experiment [1] is -4.63; in experiment [2], -5.23.
For `ClC1=CC\2=C(NC(=O)\C(=C2N[C@@H]3CN4CCC3CC4)C5=NC6=C([NH]5)C=CC=C6)C=C1` [CHIR-124], the “AC50 for growth inhibition (log10 M)” value in experiment [1] is -6.08; in experiment [2], -6.53.
Taken in the same sequence, the figures for `CC(C)n1cnc2c(NCCCCCCNC(=O)OC(C)(C)C)nc(NCCO)nc21` [CK59] were -4.93 and -5.23.
`COc1c(C)cnc(Cn2cnc3c(Cl)nc(N)nc32)c1C` [CNF-2024]: the entries for the “AC50 for growth inhibition (log10 M)” value in experiment [1] and in experiment [2] were -6.33 and -7.18, respectively.
With `C#Cc1cccc(Nc2ncnc3cc(OC)c(OCCCCCCC(=O)NO)cc23)c1` [CUDC-101], the “AC50 for growth inhibition (log10 M)” value in experiment [1] was -8.28; in experiment [2] it was -7.53.
For `COc1ccc(-c2nc(N3CCOCC3)c3sc(CN(C)c4ncc(C(=O)NO)cn4)cc3n2)cn1` [CUDC-907] the same measures were -6.28 and -7.83.
Regarding `N#CCNC(=O)c1ccc(-c2ccnc(Nc3ccc(N4CCOCC4)cc3)n2)cc1` [CYT387], the “AC50 for growth inhibition (log10 M)” value in experiment [1] is -4.78; in experiment [2] it was -4.73.
In the case of `COc1cc2nccc(Oc3ccc(NC(=O)C4(C(=O)Nc5ccc(F)cc5)CC4)cc3)c2cc1OC` [Cabozantinib], the “AC50 for growth inhibition (log10 M)” value in experiment [1] is -6.33; in experiment [2], -5.48.
On to `C=C1/C(=C\C=C2/CCC[C@]3(C)[C@@H]([C@H](C)CCCC(C)(C)O)CC[C@@H]23)C[C@@H](O)C[C@@H]1O` [Calcitriol], for which the “AC50 for growth inhibition (log10 M)” value is -6.53 in experiment [1] and -5.63 in experiment [2].
